biological target: T1, SETD2(1434-1711) (Homo sapiens, UniProt Q9BYW2); assay: SETD2 (1434-1711) assay; format: biochemical; settings: read-out: SETD2 (1434-1711)
T1 construct: SETD2 (1434-1711) Assay; catalogue N/A
T1 sequence (Q9BYW2 1434-1711): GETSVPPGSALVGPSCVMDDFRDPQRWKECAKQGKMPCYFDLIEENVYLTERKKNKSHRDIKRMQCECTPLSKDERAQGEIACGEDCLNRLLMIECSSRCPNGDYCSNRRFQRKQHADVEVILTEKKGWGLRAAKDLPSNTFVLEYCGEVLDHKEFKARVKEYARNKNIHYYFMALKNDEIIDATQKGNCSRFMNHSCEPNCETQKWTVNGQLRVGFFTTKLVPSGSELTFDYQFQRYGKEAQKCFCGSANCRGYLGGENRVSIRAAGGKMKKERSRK

SMILES	IC50
Cc1cccc2cc(C(=O)NC(C)c3cccc4ccccc34)[nH]c12 (stereo not drawn) [compound 714]	98.9 µM
CC(=O)NC1CCN([C@@H]2CCC[C@@H](NC(=O)c3cc4c(F)ccc(C)c4[nH]3)C2)C1 (stereo partly drawn) [compound 834]	5 µM
Cc1cccc2cc(C(=O)Nc3ccccn3)[nH]c12 [compound 673]	36 µM
Cc1cccc2cc(C(=O)NC(C)c3ccccc3C(F)(F)F)[nH]c12 (stereo not drawn) [compound 788]	> 200 µM
Cc1cccc2cc(C(=O)NC(C)c3ccc(-n4cncn4)cc3)[nH]c12 (stereo not drawn) [compound 1155]	17.2 µM
Cc1cccc2cc(C(=O)N3CCc4ccccc4C3)[nH]c12 [compound 684]	> 50 µM
CCOC(=O)N1CCC(NC(=O)c2cc3cccc(C)c3[nH]2)CC1 [compound 628]	13.3 µM
COC(=O)C[C@@H](NC(=O)c1cc2cccc(C)c2[nH]1)c1ccccc1 [compound 666]	> 33 µM
Cc1cccc2cc(C(=O)N[C@H]3C[C@@H]4CC[C@H]3CN4C(=O)CCCN)[nH]c12 [compound 625]	11 µM
Cc1cccc2cc(C(=O)NCc3cnc[nH]3)[nH]c12 [compound 729]	129 µM
Cc1cccc2cc(C(=O)N3CCCC(N)C3)[nH]c12 (stereo not drawn) [compound 794]	> 200 µM
Cc1ccc(F)c2cc(C(=O)Nc3cccc(N4C5CCC4CN(C)C5)c3)[nH]c12 [compound 349]	0.2 µM
Cc1cccc2cc(C(=O)Nc3cn4ccccc4n3)[nH]c12 [compound 796]	> 200 µM
CCc1cccc2cc(C(=O)NC(c3ccccn3)C3CC3)[nH]c12 (stereo not drawn) [compound 803]	> 200 µM
Cc1cccc2cc(C(=O)N3CCN(c4ncccc4C(N)=O)CC3)[nH]c12 [compound 757]	> 200 µM
COC(=O)C[C@H](NC(=O)c1cc2cccc(C)c2[nH]1)c1ccc(Cl)cc1 [compound 683]	48.2 µM
Cc1cccc2cc(C(=O)NCc3cccc(CN4CCCC4)c3)[nH]c12 [compound 674]	37 µM
Cc1ccc(F)c2cc(C(=O)N[C@@H]3CCC[C@@H](N4CCN(C(=O)C5CC5)CC4)C3)[nH]c12 [compound 831]	2.3 µM
COC(=O)C(NC(=O)c1cc2cccc(C)c2[nH]1)c1ccccc1 (stereo not drawn) [compound 701]	69.2 µM
Cc1cccc2cc(C(=O)N3CCC(=O)c4ccccc4C3)[nH]c12 [compound 814]	> 200 µM
Cc1noc(C(C)NC(=O)c2cc3cccc(C)c3[nH]2)n1 (stereo not drawn) [compound 735]	165 µM

SMILES	IC50
Cc1cccc2cc(C(=O)N[C@H](CO)C(C)C)[nH]c12 [compound 763]	> 200 µM
Cc1cccc2cc(C(=O)N[C@H]3CC[C@H](NC(=O)C(F)(F)F)CC3)[nH]c12 [compound 791]	> 200 µM
Cc1ccccc1C(O)CNC(=O)c1cc2cccc(C)c2[nH]1 (stereo not drawn) [compound 686]	51.3 µM
Cc1cccc2cc(C(=O)NC(c3ncccn3)C3CC3)[nH]c12 (stereo not drawn) [compound 680]	44.8 µM
Cc1c(C(=O)N[C@H]2CC[C@H](N)CC2)[nH]c2c(C)cccc12 [compound 736]	168 µM
COc1cccc(C(O)CNC(=O)c2cc3cccc(C)c3[nH]2)c1 (stereo not drawn) [compound 695]	62.1 µM
COC(=O)CC(NC(=O)c1cc2cccc(C)c2[nH]1)c1cccs1 (stereo not drawn) [compound 650]	> 23 µM
COC(=O)CC(NC(=O)c1cc2cccc(C)c2[nH]1)c1cccnc1 (stereo not drawn) [compound 671]	35.4 µM
Cc1cccc2cc(C(=O)NCCc3ccccc3-c3ccccc3CN)[nH]c12 [compound 635]	16.5 µM
COC(=O)CC(NC(=O)c1cc2cccc(C)c2[nH]1)c1ccc(C)cc1 (stereo not drawn) [compound 783]	> 200 µM
COC(=O)C[C@@H](NC(=O)c1cc2cccc(C)c2[nH]1)c1cccnc1 [compound 658]	26.8 µM
Cc1c(CN2CCOCC2)cccc1NC(=O)c1cc2cccc(C)c2[nH]1 [compound 624]	10.9 µM
Cc1cccc2cc(C(=O)N[C@@H](c3ccccc3)C(F)(F)F)[nH]c12 [compound 687]	51.6 µM
Cc1cccc2cc(C(=O)NC3(c4cccnc4)CC3)[nH]c12 [compound 643]	18.6 µM
Cc1cccc2cc(C(=O)N3CCCc4ccccc4C3)[nH]c12 [compound 718]	103 µM
Cc1cccc2cc(C(=O)NC(c3cccnc3)C3CC3)[nH]c12 (stereo not drawn) [compound 689]	53.3 µM
Cc1cccc2cc(C(=O)N[C@H]3CC[C@@](C)(NC(=O)CCN)CC3)[nH]c12 [compound 641]	18.5 µM
Cc1cccc2cc(C(=O)N[C@@H]3C[C@@H]4CC[C@H]3CN4C(=O)CCCN)[nH]c12 [compound 657]	25.7 µM
Cc1cccc2cc(C(=O)NC3CCNCC3)[nH]c12 [compound 715]	98.9 µM
Cc1cccc2cc(C(=O)NC(CCN(C)C)c3cccnc3)[nH]c12 (stereo not drawn) [compound 725]	123 µM
Cc1c(C(=O)N[C@H]2CC[C@H](NC(=O)CCN)CC2)[nH]c2c(C)cccc12 [compound 655]	25.1 µM

SMILES	IC50
Cc1cccc2cc(C(=O)NC3C4CCC3CC(NC(=O)CCN)C4)[nH]c12 (stereo not drawn) [compound 685]	50.5 µM
CCOC(=O)C(NC(=O)c1cc2cccc(C)c2[nH]1)C(F)(F)F (stereo not drawn) [compound 675]	37.7 µM
Cc1cccc2cc(C(=O)NCc3cocn3)[nH]c12 [compound 733]	147 µM
Cc1ccc(F)c2cc(C(=O)NC3CCCC(N4CCn5c(n[nH]c5=O)C4)C3)[nH]c12 (stereo not drawn) [compound 1106]	3 µM
CCOC(=O)C(CC1CCC1)NC(=O)c1cc2cccc(C)c2[nH]1 (stereo not drawn) [compound 630]	14.6 µM
Cc1cccc2cc(C(=O)NC(c3ncccc3Cc3ccccc3)C3CC3)[nH]c12 (stereo not drawn) [compound 817]	> 200 µM
Cc1cccc2cc(C(=O)NCC3CCCO3)[nH]c12 (stereo not drawn) [compound 747]	> 200 µM
Cc1ccc(F)c2cc(C(=O)N[C@@H]3CCC[C@@H](N4CCCNC(=O)C4)C3)[nH]c12 [compound 822]	8.3 µM
Cc1cccc2cc(C(=O)NCc3cn4ccnc4cn3)[nH]c12 [compound 710]	83.4 µM
Cc1cccc2cc(C(=O)NCc3cccc(S(=O)(=O)N4CCCCC4)c3)[nH]c12 [compound 751]	> 200 µM
Cc1cccc2cc(C(=O)NC(C3CC3)C(F)(F)F)[nH]c12 (stereo not drawn) [compound 769]	> 200 µM
Cc1cccc2cc(C(=O)NCc3ccnn3C)[nH]c12 [compound 693]	58.9 µM
Cc1cccc2cc(C(=O)NC(CO)c3ccccc3)[nH]c12 (stereo not drawn) [compound 705]	71.6 µM
Cc1cccc2cc(C(=O)Nc3cncnc3)[nH]c12 [compound 665]	32.7 µM
Cc1nonc1CNC(=O)c1cc2cccc(C)c2[nH]1 [compound 732]	137 µM
Cc1ccc(F)c2cc(C(=O)N[C@@H]3CCC[C@H](N4CCN(C(=O)C5CC5)CC4)C3)[nH]c12 [compound 830]	0.04 µM
Cc1cccc2cc(C(=O)N(C)[C@H]3CC[C@H](NC(=O)CCN)CC3)[nH]c12 [compound 645]	19.9 µM
Cc1cccc2cc(C(=O)N3CCC4(CCc5ccccc54)C3)[nH]c12 (stereo not drawn) [compound 820]	> 200 µM
Cc1cccc2cc(C(=O)NCc3ccc(S(=O)(=O)N4CCCCC4)cc3)[nH]c12 [compound 758]	> 200 µM
Cc1cccc2cc(C(=O)N[C@H]3CC[C@H](C(F)(F)F)CC3)[nH]c12 [compound 780]	> 200 µM
Cc1cccnc1C(NC(=O)c1cc2cccc(CC3CCC3)c2[nH]1)C1CC1 (stereo not drawn) [compound 821]	> 200 µM

SMILES	IC50
Cc1cccc2cc(C(=O)NC3CCN(S(=O)(=O)CCCN)CC3)[nH]c12 [compound 663]	31.5 µM
Cc1nc(CNC(=O)c2cc3cccc(C)c3[nH]2)c(C)o1 [compound 721]	113 µM
Cc1cccc2cc(C(=O)Nc3ccc(CN4CCOCC4)cc3)[nH]c12 [compound 691]	56.2 µM
COC(=O)CC(NC(=O)c1cc2cccc(C)c2[nH]1)c1ccco1 (stereo not drawn) [compound 648]	22.3 µM
Cc1cccc2cc(C(=O)NC3CCc4ccccc43)[nH]c12 (stereo not drawn) [compound 748]	> 200 µM
Cc1cccc2cc(C(=O)NC(c3cncc(CN(C)C)c3)C3CC3)[nH]c12 (stereo not drawn) [compound 727]	125 µM
CCOC(=O)CC(NC(=O)c1cc2cccc(C)c2[nH]1)c1ccncc1 (stereo not drawn) [compound 700]	68.9 µM
Cc1cccc2cc(C(=O)N3CCN(CC(N)=O)CC3)[nH]c12 [compound 781]	> 200 µM
Cc1cccc2cc(C(=O)NC3C[C@@H]4CC[C@H]3C4)[nH]c12 (stereo partly drawn) [compound 654]	25.1 µM
Cc1cccnc1C(NC(=O)c1cc2cccc(C)c2[nH]1)C1CCNC1 (stereo not drawn) [compound 722]	116 µM
Cc1cccc2cc(C(=O)N3CCCC(NC(=O)CCN)C3)[nH]c12 (stereo not drawn) [compound 798]	> 200 µM
Cc1cc(C)c2[nH]c(C(=O)N[C@H]3CC[C@H](NC(=O)CCN)CC3)cc2c1 [compound 738]	179 µM
Cc1cccc2cc(C(=O)Nc3ccncc3)[nH]c12 [compound 632]	15.6 µM
Cc1cccc2cc(C(=O)NC(c3cccc(F)c3)C(F)(F)F)[nH]c12 (stereo not drawn) [compound 642]	18.6 µM
Cc1cccc2cc(C(=O)N[C@@H]3C[C@H]4CC[C@@H]3CN4C(=O)CCN)[nH]c12 [compound 672]	35.9 µM
Cc1cccc2cc(C(=O)Nc3cc(CN4CCOCC4)ccn3)[nH]c12 [compound 724]	117 µM
Cc1cccc2cc(C(=O)NC(C)c3ccn(C)n3)[nH]c12 (stereo not drawn) [compound 712]	86.4 µM
Cc1cccc2cc(C(=O)NCC(O)C(F)F)[nH]c12 (stereo not drawn) [compound 784]	> 200 µM
Cc1cccc2cc(C(=O)NC(C)c3ccc(-n4cccn4)cc3)[nH]c12 (stereo not drawn) [compound 652]	24.8 µM
Cc1cccc2cc(C(=O)NCCc3ccccc3-c3ccccc3)[nH]c12 [compound 818]	> 200 µM
Cc1ccc(F)c2cc(C(=O)N[C@@H]3CCCC(N4CCC(=O)N(C)CC4)C3)[nH]c12 (stereo partly drawn) [compound 832]	0.6 µM

From patent US12116358B2, “Substituted indoles and methods of use thereof” (EPIZYME, INC., priority 2018, dated 2024)
